Results reported in paper PMC4188013, “Insights into the binding of PARP inhibitors to the catalytic domain of human tankyrase-2” (Acta Crystallographica Section D: Biological Crystallography, 2014).
Where two headings read alike, the source gives them in different places.

Assays:
PARP domain of TNKS2 = molecular target: T1, PARP domain of TNKS2 (Homo sapiens, UniProt Q9H2K2); assay: In vitro PARP assay, IC50 on TNKS2 (this study); assay type: biochemical; details: values from this study
T1 construct: His6; made in house; host or cells: Escherichia coli BL-21(DE3) RIPL
T1 sequence (Q9H2K2 959-1164): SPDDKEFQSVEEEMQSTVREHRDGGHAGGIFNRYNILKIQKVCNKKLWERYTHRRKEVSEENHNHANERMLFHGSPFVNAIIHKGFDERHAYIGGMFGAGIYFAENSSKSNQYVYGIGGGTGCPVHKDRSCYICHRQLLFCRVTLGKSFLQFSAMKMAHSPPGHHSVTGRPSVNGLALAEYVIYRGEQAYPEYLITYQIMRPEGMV
Protocol: Purified PARP domain of TNKS2 and either BSA or recombinant full-length 3BP2 protein were incubated in PARP reaction buffer (50 mM Tris pH 8.0, 4 mM MgCl2, 0.2 mM dithiothreitol) containing 0.5 mM NAD^+ as an exogenous source of ADP-ribose for 30 min at 25°C with or without PARP inhibitors. Reactions were stopped by adding sample buffer to the tubes. Samples were boiled and separated on a 4–20% SDS–PAGE gel. The gel was stained with Coomassie Blue, dried on a gel dryer and used for autoradiography analysis (Fig. 2 ▶).

PARP1 = system: PARP1; set-up: method as in not given; details: cited from earlier work
PARP2 = system: PARP2; set-up: method as in not given; details: IC50 values available from the literature; ref not given; cited from earlier work
TNKS1 = system: TNKS1; set-up: method as in not given; details: IC50 values available from the literature; ref not given; cited from earlier work
TNKS2 = system: TNKS2; set-up: method as in not given; details: IC50 values available from the literature; ref not given; cited from earlier work
[1] = IC50 values available from the literature, ref not given

Structure (SMILES) | IC50 (PARP domain of TNKS2) [µM] | IC50 (PARP1; [1]) [µM] | IC50 (PARP1) [µM] | IC50 (PARP2) [µM] | also measured
Oc1cccc2c(O)nccc12 [1,5-IQD, 1,5-Isoquinolinediol] | 1.5 |  |  |  | 
NC(=O)c1cccc2ncc(-c3ccc(Cl)cc3)nc12 [3,4-CPQ-5C, 3-(4-Chlorophenyl)-quinoxaline-5-carboxamide] | 3.6 |  |  |  | 
NC(=O)c1cccc(N)c1 [3-AB, 3-Amino-benzamide] | > 30 | 33 |  |  | 
Nc1cccc2c(=O)[nH]ccc12 [5-AIQ, 5-Aminoisoquinolinone] | 10 |  | 0.25 |  | 
NC(=O)c1ccc(I)c([N+](=O)[O-])c1 [BSI-201, 4-Iodo-3-nitrobenzamide] | 0.416 |  |  |  | 
O=C1NCCc2c(OCCCCN3CCCCC3)cccc21 [DPQ] | 2.8 |  | 0.023 |  | IC50 (TNKS1): 0.033 µM
Cc1nc2c(c(=O)[nH]1)CSCC2 [DR-2313, 2-Methyl-3,5,7,8-tetrahydro-4H-thiopyrano[4,3-d]pyrimidin-4-one] | 3 |  |  | 0.24 | 
Nc1ccc2oc(=O)ccc2c1I [INH2BP, 5-Iodo-6-amino-1,2-benzopyrone] |  | 5.07 |  | 4.75 | 
Cc1nc2c(O)cccc2c(=O)[nH]1 [NU-1025, 8-Hydroxy-2-methyl-3-hydro-quinazolin-4-one] |  | 0.4 |  |  | 
